According to patent publication US10022440B2, “Materials and methods for modulating immune responses” (UNIVERSITY OF FLORIDA RESEARCH FOUNDATION, INCORPORATED, priority 2011, dated 2018):

Columns and labels:
[1] = test system: whole bone marrow cells; assay: In vitro migration assay toward GM-CSF, bone marrow cells; type: cell-based, mouse; conditions: for increase in cell migration: after 24 hrs, in the presence of GM-CSF, n=3 per group
Protocol: (§1) An in vitro migration assay was performed to evaluate the migratory capacity of splenocytes and bone marrow cells toward GM-CSF. NOD, non-obese resistant (NOR), and C57/BL6 (n=3 per group) mouse cells were used in this assay.

[2] = test system: splenocytes; assay: In vitro migration assay toward GM-CSF, splenocytes; type: cell-based, mouse; conditions: for increase in cell migration: after 24 hrs, in the presence of GM-CSF, n=3 per group
Protocol: as §1

Substance: GM-CSF
- increase in cell migration ([1]; C57/BL6 whole bone marrow cells): 100%
- cell migration ([1]; NOD bone marrow cells, compared with NOR and C57/BL6 bone marrow cells): migrated in a similar manner
- increase in cell migration ([1]; NOR whole bone marrow cells): 100%
- increase in cell migration ([2]; C57/BL6 splenocytes): 100%
- migration ratios with or without GM-CSF ([2]; NOD splenocytes, p<0.05): no difference
- increase in cell migration ([2]; NOR splenocytes): 100%
